From patent publication US8735414B2 (priority 2009, dated 2014)

Key:
[1] = test system: bicistronic HCV replicon (replicon RNA, GenBank Accession No. AJ242654); assay: HCV Replicon Assay; type: cell-based; details: Hepatitis C virus, 72 h, read-out: Replicon IC50

Compound | melting point [°C] | IC50 [1] [nM]
Cc1cc2c(cc1O)c(C#N)c(-c1ccc(S(=O)(=O)NC(C)(C)C)cn1)n2C1CCC1 [compound 805, N-tert-butyl-6-(3-cyano-1-cyclobutyl-5-hydroxy-6-methyl-1H-indol-2-yl)pyridine-3-sulfonamide] | 211 to 213 | 500 to 2000
C[C@H](NS(=O)(=O)c1ccc(-c2c(C(N)=O)c3cc(F)c(OC(F)F)cc3n2C2CCCC2)nc1)C(F)(F)F [compound 806, 1-cyclopentyl-6-(difluoromethoxy)-5-fluoro-2-(5-{[(2S)-1,1,1-trifluoropropan-2-yl]sulfamoyl}pyridin-2-yl)-1H-indole-3-carboxamide] | 220 to 222 | < 500
Cc1cc2c(cc1O)c(C#N)c(-c1ccc(S(=O)(=O)N[C@H](C)C(F)(F)F)cn1)n2C1CCC1 [compound 807, 6-(3-cyano-1-cyclobutyl-5-hydroxy-6-methyl-1H-indol-2-yl)-N-[(2R)-1,1,1-trifluoropropan-2-yl]pyridine-3-sulfonamide] | 209 to 210 | < 500
N#Cc1c(-c2ccc(S(=O)(=O)NC3(C(F)(F)F)CC3)cn2)n(C2CCC2)c2cc(OC(F)F)c(F)cc12 [compound 808, 6-[3-cyano-1-cyclobutyl-6-(difluoromethoxy)-5-fluoro-1H-indol-2-yl]-N-[1-(trifluoromethyl)cyclopropyl]pyridine-3-sulfonamide] | 169 to 171 | < 500
NC(=O)c1c(-c2ccc(S(=O)(=O)NC3(C(F)(F)F)CC3)cn2)n(C2CCC2)c2cc(OC(F)F)c(F)cc12 [compound 809, 1-cyclobutyl-6-(difluoromethoxy)-5-fluoro-2-(5-{[1-(trifluoromethyl)cyclopropyl]sulfamoyl}pyridin-2-yl)-1H-indole-3-carboxamide] | 197 to 200 | < 500
Cc1c(OC(F)F)c(F)cc2c(C#N)c(-c3ccc(S(=O)(=O)N[C@@H](C)C(F)(F)F)cn3)n(C3CCC3)c12 [compound 811, 6-[3-cyano-1-cyclobutyl-6-(difluoromethoxy)-5-fluoro-7-methyl-1H-indol-2-yl]-N-[(2S)-1,1,1-trifluoropropan-2-yl]pyridine-3-sulfonamide] | 168 to 174 | < 500
N#Cc1c(-c2ccc(S(N)(=O)=O)cn2)n(CC2CC2)c2cc(OC(F)F)c(F)cc12 [compound 812, 6-[3-cyano-1-(cyclopropylmethyl)-6-(difluoromethoxy)-5-fluoro-1H-indol-2-yl]pyridine-3-sulfonamide] | 173 to 178 | 2000 to 5000
Cc1cc2c(cc1F)c(C#N)c(-c1ccc(S(=O)(=O)N[C@@H](C)C(F)(F)F)cn1)n2-c1cccc(F)n1 [compound 815, 6-[3-cyano-5-fluoro-1-(6-fluoropyridin-2-yl)-6-methyl-1H-indol-2-yl]-N-[(2S)-1,1,1-trifluoropropan-2-yl]pyridine-3-sulfonamide] | 210 to 212 | < 500
Cc1cc2c(cc1F)c(C#N)c(-c1ccc(S(=O)(=O)N[C@@H](C)C(F)(F)F)cn1)n2-c1cnccn1 [compound 817, 6-[3-cyano-5-fluoro-6-methyl-1-(pyrazin-2-yl)-1H-indol-2-yl]-N-[(2S)-1,1,1-trifluoropropan-2-yl]pyridine-3-sulfonamide] | 220 to 223 | < 500
C[C@H](NS(=O)(=O)c1ccc(-c2c(C#N)c3cc(F)c(C4CC4)cc3n2-c2ccc(F)cn2)nc1)C(F)(F)F [compound 818, 6-[3-cyano-6-cyclopropyl-5-fluoro-1-(5-fluoropyridin-2-yl)-1H-indol-2-yl]-N-[(2S)-1,1,1-trifluoropropan-2-yl]pyridine-3-sulfonamide] | 240 to 242 | < 500
C[C@H](NS(=O)(=O)c1ccc(-c2c(C#N)c3cc(F)c(C4CC4)cc3n2-c2ccccn2)nc1)C(F)(F)F [compound 819, 6-[3-cyano-6-cyclopropyl-5-fluoro-1-(pyridin-2-yl)-1H-indol-2-yl]-N-[(2S)-1,1,1-trifluoropropan-2-yl]pyridine-3-sulfonamide] | 220 to 223 | < 500
C[C@H](NS(=O)(=O)c1ccc(-c2c(C#N)c3cc(F)c(C4CC4)cc3n2-c2ncccn2)nc1)C(F)(F)F [compound 820, 6-[3-cyano-6-cyclopropyl-5-fluoro-1-(pyrimidin-2-yl)-1H-indol-2-yl]-N-[(2S)-1,1,1-trifluoropropan-2-yl]pyridine-3-sulfonamide] | 236 to 240 | < 500
CC[C@H](NS(=O)(=O)c1ccc(-c2c(C#N)c3cc(F)c(C)cc3n2C2CCCC2)nc1)C(F)(F)F [compound 821, 6-(3-cyano-1-cyclopentyl-5-fluoro-6-methyl-1H-indol-2-yl)-N-[(2S)-1,1,1-trifluorobutan-2-yl]pyridine-3-sulfonamide] | 201 to 207 | < 500
Cc1cc(-c2c(C#N)c3cc(F)c(OC(F)F)cc3n2C2CCC2)ncc1S(=O)(=O)N[C@@H](C)C(F)(F)F [compound 822, 6-[3-cyano-1-cyclobutyl-6-(difluoromethoxy)-5-fluoro-1H-indol-2-yl]-4-methyl-N-[(2S)-1,1,1-trifluoropropan-2-yl]pyridine-3-sulfonamide] | 204 to 210 | < 500
C[C@H](NS(=O)(=O)c1ccc(-c2c(C(N)=O)c3c(F)cc(OC(F)F)cc3n2C2CCC2)nc1)C(F)(F)F [compound 825, 1-cyclobutyl-6-(difluoromethoxy)-4-fluoro-2-(5-{[(2S)-1,1,1-trifluoropropan-2-yl]sulfamoyl}pyridin-2-yl)-1H-indole-3-carboxamide] | 254 to 256 | < 500
CC[C@H](NS(=O)(=O)c1ccc(-c2c(C#N)c3cc(F)c(C)cc3n2C2CCC2)nc1)C(F)(F)F [compound 826, 6-(3-cyano-1-cyclobutyl-5-fluoro-6-methyl-1H-indol-2-yl)-N-[(2S)-1,1,1-trifluorobutan-2-yl]pyridine-3-sulfonamide] | 212 to 217 | < 500
Cc1cc(S(=O)(=O)N[C@@H](C)C(F)(F)F)cnc1-c1c(C#N)c2cc(F)c(OC(F)F)cc2n1C1CCC1 [compound 827, 6-[3-cyano-1-cyclobutyl-6-(difluoromethoxy)-5-fluoro-1H-indol-2-yl]-5-methyl-N-[(2S)-1,1,1-trifluoropropan-2-yl]pyridine-3-sulfonamide] | 150 to 155 | < 500
Cc1cc2c(cc1O)c(C(N)=O)c(-c1ccc(S(=O)(=O)NC(C)(C)C)cn1)n2C1CCC1 [compound 828, 2-[5-(tert-butylsulfamoyl)pyridin-2-yl]-1-cyclobutyl-5-hydroxy-6-methyl-1H-indole-3-carboxamide] | 292 to 293 | 2000 to 5000
C[C@@H](NS(=O)(=O)c1ccc(-c2c(C(N)=O)c3cc(F)c(C4CC4)cc3n2C2CCCC2)nc1)C(F)(F)F [compound 829, 1-cyclopentyl-6-cyclopropyl-5-fluoro-2-(5-{[(2R)-1,1,1-trifluoropropan-2-yl]sulfamoyl}pyridin-2-yl)-1H-indole-3-carboxamide] | 233 to 234 | < 500
CCc1cc2c(cc1F)c(C(N)=O)c(-c1ccc(S(=O)(=O)N[C@@H](C)C(F)(F)F)cn1)n2C1CCCC1 [compound 830, 1-cyclopentyl-6-ethyl-5-fluoro-2-(5-{[(2S)-1,1,1-trifluoropropan-2-yl]sulfamoyl}pyridin-2-yl)-1H-indole-3-carboxamide] | 237 to 238 | < 500
CC(C)(NS(=O)(=O)c1ccc(-c2c(C#N)c3cc(F)c(C4CC4)cc3n2C2CCCC2)nc1)C(F)(F)F [compound 831, 6-(3-cyano-1-cyclopentyl-6-cyclopropyl-5-fluoro-1H-indol-2-yl)-N-(1,1,1-trifluoro-2-methylpropan-2-yl)pyridine-3-sulfonamide] | 183 to 185 | < 500
CC(C)(C)NS(=O)(=O)c1ccc(-c2c(C#N)c3cc(F)c(C4CC4)cc3n2C2CCCC2)nc1 [compound 832, N-tert-butyl-6-(3-cyano-1-cyclopentyl-6-cyclopropyl-5-fluoro-1H-indol-2-yl)pyridine-3-sulfonamide] | 186 to 188 | < 500
Cc1cc2c(cc1O)c(C(N)=O)c(-c1ccc(S(=O)(=O)N[C@@H](C)C(F)(F)F)cn1)n2C1CCC1 [compound 833, 1-cyclobutyl-5-hydroxy-6-methyl-2-(5-{[(2S)-1,1,1-trifluoropropan-2-yl]sulfamoyl}pyridin-2-yl)-1H-indole-3-carboxamide] | 256 to 258 | 500 to 2000
COc1cc2c(C(N)=O)c(-c3ccc(S(=O)(=O)N[C@H](C)C(F)(F)F)cn3)n(C3CCCC3)c2cc1C [compound 834, 1-cyclopentyl-5-methoxy-6-methyl-2-(5-{[(2R)-1,1,1-trifluoropropan-2-yl]sulfamoyl}pyridin-2-yl)-1H-indole-3-carboxamide] | 273 to 275 | 2000 to 5000
Cc1cc2c(cc1F)c(C(=O)O)c(-c1ccc(S(=O)(=O)NC3(C(F)(F)F)CC3)cn1)n2C1CCCCC1 [compound 835, 1-cyclohexyl-5-fluoro-6-methyl-2-(5-{[1-(trifluoromethyl)cyclopropyl]sulfamoyl}pyridin-2-yl)-1H-indole-3-carboxylic acid] | 205 to 213 | < 500
Cc1cc2c(cc1F)c(C#N)c(-c1ccc(NS(=O)(=O)N[C@@H](C)C(F)(F)F)cn1)n2C1CCCC1 [compound 836, N-[6-(3-cyano-1-cyclopentyl-5-fluoro-6-methyl-1H-indol-2-yl)pyridin-3-yl]-N′-[(2S)-1,1,1-trifluoropropan-2-yl]sulfuric diamide] | 206 to 208 | 500 to 2000
Cc1cc2c(cc1F)c(C#N)c(-c1ncc(S(=O)(=O)N[C@@H](C)C(F)(F)F)cc1C)n2C1CCCC1 [compound 837, 6-(3-cyano-1-cyclopentyl-5-fluoro-6-methyl-1H-indol-2-yl)-5-methyl-N-[(2S)-1,1,1-trifluoropropan-2-yl]pyridine-3-sulfonamide] | 237 to 242 | < 500
